{
  "source": "patent US9808504B2",
  "about": "“Immunogenic epitopes as targets for universal cancer vaccines” (Yale University, priority 2009, dated 2017)",
  "data": [
    {"test_system": "freshly isolated human PBMCs", "assay": "Detection of OCT4 reactive T cells in fresh PBMCs: IP10 in culture supernatant by Luminex", "format": "cell-based", "details": "PBMCs of 10 healthy donors cultured with individual peptides, 48 h", "values": [
      {"sequence": "AETLVQARKRKRTSI [compound 61]", "reactivity to individual peptides (fine specificity)": "hot-spots of promiscuous reactivity"},
      {"sequence": "AQQLGLEKDVVRVWF [compound 72]", "reactivity to individual peptides (fine specificity)": "hot-spots of promiscuous reactivity"},
      {"sequence": "CKLRPLLQKWVEEA [compound 55]", "reactivity to individual peptides (fine specificity)": "hot-spots of promiscuous reactivity"},
      {"sequence": "DVVRVWFCNRRQKGK [compound 74]", "reactivity to individual peptides (fine specificity)": "hot-spots of promiscuous reactivity"},
      {"sequence": "EICKAETLVQARKRK [compound 60]", "reactivity to individual peptides (fine specificity)": "hot-spots of promiscuous reactivity"},
      {"sequence": "GLEKDVVRVWFCNRR [compound 73]", "reactivity to individual peptides (fine specificity)": "hot-spots of promiscuous reactivity"},
      {"sequence": "KRKRTSIENRVRGNL [compound 63]", "reactivity to individual peptides (fine specificity)": "hot-spots of promiscuous reactivity"},
      {"sequence": "LQQISHIAQQLGLEK [compound 70]", "reactivity to individual peptides (fine specificity)": "hot-spots of promiscuous reactivity"},
      {"sequence": "LSFKNMCKLRPLLQK [compound 53]", "reactivity to individual peptides (fine specificity)": "hot-spots of promiscuous reactivity"},
      {"sequence": "NLFLQCPKPTLQQIS [compound 67]", "reactivity to individual peptides (fine specificity)": "hot-spots of promiscuous reactivity"},
      {"sequence": "NMCKLRPLLQKWV [compound 54]", "reactivity to individual peptides (fine specificity)": "hot-spots of promiscuous reactivity"},
      {"sequence": "NRRQKGKRSSSDYA [compound 76]", "reactivity to individual peptides (fine specificity)": "hot-spots of promiscuous reactivity"},
      {"sequence": "NRVRGNLENLFLQCP [compound 65]", "reactivity to individual peptides (fine specificity)": "hot-spots of promiscuous reactivity"},
      {"sequence": "RQKGKRSSSDYAQR [compound 77]", "reactivity to individual peptides (fine specificity)": "hot-spots of promiscuous reactivity"},
      {"sequence": "SHIAQQLGLEKDVVR [compound 71]", "reactivity to individual peptides (fine specificity)": "hot-spots of promiscuous reactivity"},
      {"sequence": "VQARKRKRTSIENRV [compound 62]", "reactivity to individual peptides (fine specificity)": "hot-spots of promiscuous reactivity"},
      {"sequence": "VWFCNRRQKGKRSSS [compound 75]", "reactivity to individual peptides (fine specificity)": "hot-spots of promiscuous reactivity"}
    ]}
  ]
}
